Measured values published in patent EP1194447B1, “NOVEL POTASSIUM CHANNELS AND GENES ENCODING THESE POTASSIUM CHANNELS” (NEUROSEARCH A/S, priority 1999, dated 2000).
Each block holds one molecule with its values, some of them ahead of it.

What was measured:
[1] = molecular target: T1, KCNQ5 (Homo sapiens, UniProt Q9NR82); test: Two-electrode voltage clamp of KCNQ5 homomers expressed in Xenopus oocytes; format: cell-based; conditions: for IC50: extracellular application, Xenopus oocytes, from plotted fit curves (Fig. 5A), means ± SEM of 4 to 12 measurements, read-out: IC50, inhibition of KCNQ5 homomers; for effect on KCNQ5 currents: 10 µM, oocytes injected with KCNQ5 alone (no M1 receptor)
T1 construct: expressed in transfected cells; host or cells: Xenopus oocytes injected with cRNA transcribed from the KCNQ5-containing pTLN vector
T1 sequence (Q9NR82 36-932 limits assumed): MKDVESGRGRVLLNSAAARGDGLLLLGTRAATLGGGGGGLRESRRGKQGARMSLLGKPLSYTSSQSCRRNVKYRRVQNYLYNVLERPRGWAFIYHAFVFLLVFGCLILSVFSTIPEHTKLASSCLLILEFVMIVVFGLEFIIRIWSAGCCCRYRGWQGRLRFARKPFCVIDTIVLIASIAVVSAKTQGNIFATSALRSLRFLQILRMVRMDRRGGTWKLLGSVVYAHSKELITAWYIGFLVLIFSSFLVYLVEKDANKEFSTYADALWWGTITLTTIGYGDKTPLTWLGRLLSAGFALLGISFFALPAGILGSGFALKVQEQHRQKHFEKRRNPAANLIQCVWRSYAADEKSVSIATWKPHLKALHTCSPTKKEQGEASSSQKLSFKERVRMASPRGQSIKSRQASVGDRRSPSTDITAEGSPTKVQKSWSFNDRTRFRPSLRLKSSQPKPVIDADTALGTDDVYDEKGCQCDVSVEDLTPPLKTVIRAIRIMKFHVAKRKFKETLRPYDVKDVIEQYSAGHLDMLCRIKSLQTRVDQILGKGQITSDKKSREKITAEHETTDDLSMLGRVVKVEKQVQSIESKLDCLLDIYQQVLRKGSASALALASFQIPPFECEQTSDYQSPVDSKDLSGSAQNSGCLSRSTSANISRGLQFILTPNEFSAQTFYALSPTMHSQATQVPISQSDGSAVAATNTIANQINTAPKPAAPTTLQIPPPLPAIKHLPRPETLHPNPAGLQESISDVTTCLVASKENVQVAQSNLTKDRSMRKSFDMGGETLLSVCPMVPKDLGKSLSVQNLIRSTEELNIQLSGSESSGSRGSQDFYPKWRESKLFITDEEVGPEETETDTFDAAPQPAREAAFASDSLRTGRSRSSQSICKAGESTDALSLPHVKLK
Excerpt: Two-electrode voltage-clamp current traces from a Xenopus oocyte injected with KCNQ5 cRNA. […] Starting from a holding potential of -80 mV cells were clamped for 2 seconds to voltages between -80 and +40 mV, in +10 mV steps, followed by a constant test pulse to -30 mV; • Figs. 4A-G show the electrophysiological properties of KCNQ5. Both the splice variant I (found in brain) and splice variant III (found in muscle) were expressed in Xenopus oocytes and examined by two-electrode voltage clamping. Both variants activate slowly upon depolarisation, but form I (4A) initially activates slower than the muscle form III (4B). Starting from a holding potential of -80 mV, the voltage was stepped for 0.8 seconds to values between -100 and + 40 mV in steps of 10 mV, followed by a voltage step to -30 mV (see inset, panel A). Channel activation by depolarization was fitted (for 2 sec. steps) by a sum of three exponential functions. For a step to +20 mV, the rate constants were ô1 = 37. 2 ± 2.2 ms, ô2 = 246 ± 17 ms, and ô3 = 1112 ± 91 ms for splice variant I, while these constants were ô1 = 24.5 ± 0.8 ms, ô2 = 163 ± 6 ms, and ô3 = 1690 ± 46 ms (± SEM, n=16). This difference in kinetics also results in different curves when a typical M-current protocol is used (4C, variant I; 4D, variant III). Variant I induces currents that kinetically resemble M-currents. In this protocol, the membrane voltage is clamped for 1 second to voltages between -30 and -90 mV in steps of -10 mV, from a holding potential of -30 mV. This was followed by a step to -30 mV (panel C, inset). (4E, 4F), apparent open probabilities of variants I (4E) and variant III (4F) as a function of voltage obtained from tail current analysis as described in Methods. Mean values obtained from 12 oocytes are shown. Fitting a Boltzmann equation yielded V½ = -46 ± 1 mV and an apparent gating charge of z = 2.8 ± 0.1 for isoform I, and V½ = -48 ± 1 mV and an apparent gating charge of z = 2.5 ± 0.1 for isoform III. For this fit, values at potentials more positive than +10 mV were excluded, as these are probably affected by a second (inactivation) gating process which leads to a decrease of apparent Popen at more positive potentials. (4G), ion selectivity of KCNQ5 currents (variant I). Extracellular sodium was replaced by equimolar amounts of potassium. The reversal potential is shown as a function of the potassium concentration. […] Data are from 10 oocytes from 2 different batches; • Figs. 5A-C show the pharmacology of KCNQ5 and KCNQ3/5 heteromers. (5A) Inhibition of KCNQ5 homomers by extracellular linopirdine (down triangles), XE991 (up triangles) and TEA (squares). […] (5B) Niflumic acid alters the voltage dependence of the apparent popen. In the presence of 500 µM niflumic acid (open circles), the voltage dependence is shifted about 20 mV towards negative potentials. (5C) TEA sensitivity is altered in KCNQ3/5 heteromers. Coexpression of KCNQ5 and KCNQ3 (1:1) (diamonds) increased the IC50 value to 200 mM, coexpression with the KCNQ3 (T323Y) mutant (circles) decreased the IC50 to ~ 30 mM. […] The pulse protocol is shown in the inset of panel b. No effect of 10 µM muscarine or oxotremorine methiodide was found in oocytes injected with KCNQ5 alone; and • Figs. 7A-C show the interactions between KCNQ2 and KCNQ5 (7A, 7B) and KCNQ3 and KCNQ5 (7C): • (7A) currents at the end of a two second pulse to 0 mV from a holding potential of -80 mV of oocytes injected with different combinations of KCNQ cRNAs (always 10 ng total amount of RNA). The current amplitude elicited by co-injecting KCNQ2 and KCNQ5 could be explained by a linear superposition of currents. Co-injection of KCNQ5 with the dominant negative mutant KCNQ2(G279S) or of KCNQ2 with the equivalent mutant KCNQ5(G278S) lead to a roughly 50% reduction in current amplitude, which is consistent with a lack of interaction since only 50% of WT cRNA was injected; • (7B) normalized current traces of experiments used for panel (A). […]

[2] = molecular target: KCNQ2/KCNQ3 channels (Homo sapiens, UniProt O43525+O43526); conditions: 200 µM; cited from earlier work
Chain of KCNQ2/KCNQ3 channels (O43526 whole entry): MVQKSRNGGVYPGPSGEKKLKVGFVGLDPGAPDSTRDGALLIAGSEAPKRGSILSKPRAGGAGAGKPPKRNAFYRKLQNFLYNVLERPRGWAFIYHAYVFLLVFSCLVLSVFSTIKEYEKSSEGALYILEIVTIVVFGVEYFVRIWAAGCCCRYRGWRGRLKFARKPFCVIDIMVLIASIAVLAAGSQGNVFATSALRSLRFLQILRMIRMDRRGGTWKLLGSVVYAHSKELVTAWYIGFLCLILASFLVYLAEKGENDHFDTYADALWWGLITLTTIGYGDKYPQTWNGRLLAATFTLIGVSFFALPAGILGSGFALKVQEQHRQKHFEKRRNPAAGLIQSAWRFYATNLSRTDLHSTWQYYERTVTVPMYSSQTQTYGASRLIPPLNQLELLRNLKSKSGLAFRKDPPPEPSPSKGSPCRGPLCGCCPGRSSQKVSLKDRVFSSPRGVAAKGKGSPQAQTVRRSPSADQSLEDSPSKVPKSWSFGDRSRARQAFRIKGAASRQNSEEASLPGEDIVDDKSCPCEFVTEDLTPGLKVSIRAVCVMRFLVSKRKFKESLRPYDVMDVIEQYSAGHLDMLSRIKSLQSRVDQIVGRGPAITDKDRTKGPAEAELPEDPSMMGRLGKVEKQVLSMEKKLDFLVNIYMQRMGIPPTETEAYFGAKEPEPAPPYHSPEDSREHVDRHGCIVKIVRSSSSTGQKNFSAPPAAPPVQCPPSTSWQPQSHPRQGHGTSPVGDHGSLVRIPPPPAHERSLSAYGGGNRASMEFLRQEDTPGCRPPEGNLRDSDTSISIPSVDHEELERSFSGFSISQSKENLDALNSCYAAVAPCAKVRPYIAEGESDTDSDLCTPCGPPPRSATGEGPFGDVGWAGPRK
Chain of KCNQ2/KCNQ3 channels (O43525 whole entry): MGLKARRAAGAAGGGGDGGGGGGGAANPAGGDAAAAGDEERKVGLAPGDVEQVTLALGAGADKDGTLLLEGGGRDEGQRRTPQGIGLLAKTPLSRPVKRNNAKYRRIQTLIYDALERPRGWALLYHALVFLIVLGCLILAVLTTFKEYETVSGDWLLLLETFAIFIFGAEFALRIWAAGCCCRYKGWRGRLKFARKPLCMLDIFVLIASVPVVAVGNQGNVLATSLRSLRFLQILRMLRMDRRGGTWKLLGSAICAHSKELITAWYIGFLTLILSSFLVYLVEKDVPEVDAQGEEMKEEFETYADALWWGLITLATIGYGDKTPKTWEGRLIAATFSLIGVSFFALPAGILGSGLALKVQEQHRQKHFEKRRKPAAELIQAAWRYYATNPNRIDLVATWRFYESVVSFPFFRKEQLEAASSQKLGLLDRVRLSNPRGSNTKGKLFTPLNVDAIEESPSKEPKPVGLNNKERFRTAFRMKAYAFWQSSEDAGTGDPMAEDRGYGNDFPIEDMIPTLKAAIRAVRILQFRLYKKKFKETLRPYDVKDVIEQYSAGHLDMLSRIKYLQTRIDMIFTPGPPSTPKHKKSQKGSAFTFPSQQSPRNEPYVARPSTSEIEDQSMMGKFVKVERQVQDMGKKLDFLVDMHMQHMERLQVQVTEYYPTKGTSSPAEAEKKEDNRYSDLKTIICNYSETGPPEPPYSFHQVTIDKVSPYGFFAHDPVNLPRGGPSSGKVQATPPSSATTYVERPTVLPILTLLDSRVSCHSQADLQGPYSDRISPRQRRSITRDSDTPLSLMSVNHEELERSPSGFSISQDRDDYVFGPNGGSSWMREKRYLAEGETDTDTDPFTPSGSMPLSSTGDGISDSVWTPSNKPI

[3] = molecular target: T2, KCNQ5 coexpressed with KCNQ3 (T323Y) mutant (Homo sapiens, UniProt O43525+Q9NR82, T323Y); test: Two-electrode voltage clamp of KCNQ5 coexpressed with the KCNQ3 (T323Y) mutant in Xenopus oocytes; format: cell-based; conditions: coexpression of KCNQ5 with the KCNQ3 (T323Y) mutant; Fig. 5C; read-out: IC50 (TEA sensitivity)
T2 construct: expressed in transfected cells; host or cells: Xenopus oocytes co-injected with cRNAs
T2 sequence (Q9NR82 36-932 limits assumed): as the sequence (Q9NR82 36-932 limits assumed) above
T2 sequence (O43525 whole entry T323Y): as the sequence (O43525 whole entry) above, with T323Y counted along it
Excerpt: Two-electrode voltage-clamp current traces from a Xenopus oocyte injected with KCNQ5 cRNA. […] Starting from a holding potential of -80 mV cells were clamped for 2 seconds to voltages between -80 and +40 mV, in +10 mV steps, followed by a constant test pulse to -30 mV; • Figs. 4A-G show the electrophysiological properties of KCNQ5. Both the splice variant I (found in brain) and splice variant III (found in muscle) were expressed in Xenopus oocytes and examined by two-electrode voltage clamping. Both variants activate slowly upon depolarisation, but form I (4A) initially activates slower than the muscle form III (4B). Starting from a holding potential of -80 mV, the voltage was stepped for 0.8 seconds to values between -100 and + 40 mV in steps of 10 mV, followed by a voltage step to -30 mV (see inset, panel A). Channel activation by depolarization was fitted (for 2 sec. steps) by a sum of three exponential functions. For a step to +20 mV, the rate constants were ô1 = 37. 2 ± 2.2 ms, ô2 = 246 ± 17 ms, and ô3 = 1112 ± 91 ms for splice variant I, while these constants were ô1 = 24.5 ± 0.8 ms, ô2 = 163 ± 6 ms, and ô3 = 1690 ± 46 ms (± SEM, n=16). This difference in kinetics also results in different curves when a typical M-current protocol is used (4C, variant I; 4D, variant III). Variant I induces currents that kinetically resemble M-currents. […]

[4] = test system: KCNQ5 co-expressed with M1 receptors; test: KCNQ5 currents in Xenopus oocytes co-expressing M1 receptors (two-electrode voltage clamp); format: cell-based, human; conditions: 10 µM muscarine, 3 minutes after applying; Fig. 6
Excerpt: Two-electrode voltage-clamp current traces from a Xenopus oocyte injected with KCNQ5 cRNA. […] Starting from a holding potential of -80 mV cells were clamped for 2 seconds to voltages between -80 and +40 mV, in +10 mV steps, followed by a constant test pulse to -30 mV; • Figs. 4A-G show the electrophysiological properties of KCNQ5. […] Starting from a holding potential of -80 mV, the voltage was stepped for 0.8 seconds to values between -100 and + 40 mV in steps of 10 mV, followed by a voltage step to -30 mV (see inset, panel A). Channel activation by depolarization was fitted (for 2 sec. steps) by a sum of three exponential functions. For a step to +20 mV, the rate constants were ô1 = 37. […] In this protocol, the membrane voltage is clamped for 1 second to voltages between -30 and -90 mV in steps of -10 mV, from a holding potential of -30 mV. This was followed by a step to -30 mV (panel C, inset). (4E, 4F), apparent open probabilities of variants I (4E) and variant III (4F) as a function of voltage obtained from tail current analysis as described in Methods. Mean values obtained from 12 oocytes are shown. […] For this fit, values at potentials more positive than +10 mV were excluded, as these are probably affected by a second (inactivation) gating process which leads to a decrease of apparent Popen at more positive potentials. (4G), ion selectivity of KCNQ5 currents (variant I). […]

Structure (SMILES): [Ba+2] [Ba^++]
inhibition of KCNQ5 currents ([1]; 5 mM Ba++): more than 80%

inhibition at 200 µM ([1]; 200 µM Linopirdine in ND98): ~80% | IC50 [1]: 0.051 ± 0.005 mM
Structure (SMILES): O=C1N(c2ccccc2)c2ccccc2C1(Cc1ccncc1)Cc1ccncc1 [Linopirdine, 1,3-dihydro-1-phenyl-3,3-bis-(4-pyridylmethyl)-2H-indol-2-one]
inhibition of KCNQ2/KCNQ3 channels [2]: nearly completely inhibits

shift of the voltage dependence of the apparent popen towards negative potentials ([1]; 500 µM niflumic acid, Fig. 5B): about 20 mV
Structure (SMILES): O=C(O)c1cccnc1Nc1cccc(C(F)(F)F)c1 [Niflumic acid]

Structure (SMILES): CC[N+](CC)(CC)CC [TEA]
IC50 [1]: 71 ± 17 mM | IC50 [3]: ~30 mM

Structure (SMILES): C[C@@H]1O[C@H](C[N+](C)(C)C)C[C@H]1O [muscarine]
effect on KCNQ5 currents [1]: No effect | effect on KCNQ5 currents by stimulating co-expressed M1 receptors [4]: inhibition of KCNQ5 currents

Structure (SMILES): C[N+](C)(C)CC#CCN1CCCC1=O [oxotremorine methiodide]
effect on KCNQ5 currents [1]: No effect
